Data set [1] has as its system S. aureus (ATCC #29740). In words: In vitro minimal inhibitory concentration by micro-titer dilution method. The class given is cell-based. The conditions noted are these: Staphylococcus aureus, ATCC29740.
The subject of data set [2] is S. aureus (ATCC #29740). The data set is described as follows: Staphylococcal Abscess Model. The class given is in vivo, Mice (out-bred CD-1 males). The conditions noted are these: single dose (200 mg/kg). As to the method:
Staphylococcal Abscess Model. S. aureus (ATCC #29740) was grown overnight at 30°C in trypticase soy broth. Aliquots of this suspension were frozen at -70°C. […] For use, cultures were thawed and diluted with saline to contain the desired number of colony forming units (CFU) per ml. Mice (out-bred CD-1 males) were injected subcutaneously with 0.1 ml of S. aureus suspension in the abdominal area. Treatment with free or encapsulated drug was given before or after infection. At four days after infection, mice were killed by cervical dislocation, the abscesses were carefully dissected out and their diameters measured.
To determine the effect of treatment on abscess development, mice were given a single intravenous or subcutaneous injection of free or complexed cephapirin at various times before or after injection.

Data set [3] can be described thus: Serum levels of cephapirin activity after subcutaneous or intravenous administration. The class given is in vivo, mice. As to the method:
(§1) The antibacterial activity was measured by an agar well diffusion bioassay, though other assays for antibacterial activity or chemical, or immunological assays for the drug substance are known to those skilled in the art. Briefly, the agar well diffusion bioassay used here were performed by cutting wells into an agar such as Trypticaso Soy Agar (Difco., Detroit, MI) that were previously seeded with a test bacteria such as Bacillus subtilis (ATCC #6633). The wells were filled with a small amount of test material here about 50ul of the test sample, and the agar plates were incubated. Bacillus subtilis incubation was for about 16-24 hours at about 35°C. Growth of a bacterial "lawn" around the well was inhibited by antibiotic present in the agar as diffused from the test sample. The diameters of the zones of inhibited growth around the wells were proportional to the concentration of antibiotic in the test sample and were quantitated by comparison with known, standard antibiotic solutions.
Cephapirin activity in the serum of mice was determined at intervals after subcutaneous or intravenous administration of free or complexed drug. […] Maximal activity was found in the serum of mice given free cephapirin (by either route) at the earliest time points examined (one half to one hour post-injection). […] With a 200 mg/kg dose, serum levels were 10 ug/ml or greater for 24 hours after injection. […]

Data set [4] can be described thus: Tissue distribution of cephapirin activity after intravenous administration (agar well diffusion bioassay). It counts as in vivo, mice. As to conditions: 200 mg/kg intravenous; for concentration at 1 h / concentration at 3 h / concentration at 7 h / concentration at 10 h / concentration at 24 h: mouse. The procedure: as §1
In general terms: A growth-free zone around the sample is the usual read-out of agar diffusion tests.

For another data set, the system named is S. aureus. In words: Staphylococcal Septicemia Model. It counts as in vivo, Mice. As to conditions: for % Survival at 72 hours: 10 mice. As to the method:
Staphylococcal Septicemia Model. The S. aureus inoculum was prepared as for the abscess model. Mice were inoculated intraperitoneally with 2 x 10⁸ CFU in 5% hog/mucin. Treatment was given before or after infection. […]
The effect of free and CHStris cephalosporin:lipid complex cephapirin was compared in an acute staphylococcus septicemia model.

Data set [5] deals with S. typhimurium (ATCC #14028). The data set is described as follows: Salmonella typhimurium Septicemia Model. The class given is in vivo, Mice. As to conditions: 700 CFU intravenously; treatment on days 2 and 4 post-inoculation; groups of 10. As to the method:
Salmonella typhimurium Septicemia Model: S. typhimurium (ATCC #14028) was grown in trypticase soy broth at 35°C overnight. Aliquots of this suspension were frozen and maintained at -70°C. For use, cultures were thawed and diluted to contain 700 CFU/ml in 0.9% saline. Mice were inoculated intravenously (0.1 ml) via the lateral tail vein. Treatment was given at various times after infection. Mortality was monitored daily for two weeks.
Mice (in groups of 10) that were inoculated intravenously with 700 CFU of S. typhimurium and received no treatment died within 6-8 days after infection (Fig. 11). […] In this case, the cephalosporin:lipid complex preparation was not washed so that 30% of the administered dose was encapsulated.

A short description of a further data set: in vivo. The conditions noted are these: mouse, iv, 924 mg/kg.
For data set [6], the system named is many susceptible organisms. The conditions noted are these: for many susceptible organisms; cited from earlier work.
Data set [7] is described as follows: Serum levels of cefazolin after a single intravenous dose. The class given is in vivo, mice. As to the method: as §1
Both cephapirin and cefazolin display prolonged activity in serum and activity at a higher level by the cephalosporin:lipid complex preparation as compared to the free drug. […] Extended prophylactic activity in the serum can also be achieved by subcutaneous administration of a cephalosporin:lipid complex antibiotic.
Intravenous injection of a single 100mg/kg dose of free cefazolin dosium in mice results in a mean serum concentration of 8 to 20ug/ml at one hour post dose (Fig. 9).

Protocol for in vivo: Contrast agents were tested in mice by injecting a single intravenous dose of free or complexed contrast agent (diatrizoate) via the tail vein. […] The specific activity of the doses were about 10000 c/mg I.

What is called MIC is the lowest concentration that inhibits growth of the organism. Low values mean a more susceptible organism, high ones a less susceptible organism. `CC(=O)OCC1=C(C(=O)O)N2C(=O)[C@@H](NC(=O)CSc3ccncc3)[C@H]2SC1` [Free Cephapirin, cephapirin sodium] displayed a minimal inhibitory concentration (MIC) against S. aureus (ATCC #29740) [1] of 0.05 to 0.1 µg/mL. The results for the “effect on abscess size” value with S. aureus (ATCC #29740) [2] (four hours before infection (complex: up to four hours before)), with S. aureus (ATCC #29740) [2] (one hour after infection) and in the data set with S. aureus (ATCC #29740) [2] (one hour before infection) were “no effect on abscess size”, “significantly reduces or prevents abscess development” and “reduced abscess size slightly”, respectively. Also, in [3] (at 3 hours or later), the “activity in the serum” value was “no activity was detectable”. The “half-life of free drug” value in data set [3] (serum, both intravenous and sub-cutaneous administration, estimated) is on record as “approximately 20 minutes”. Moreover, in [4] (at 3 hours or later), the activity in tissues entry was “No activity was detected”. Further, the concentration at 1 h was 49000 ± 8000 ng/g in data set [4] (KIDNEY, time 1 (hours after injection), mean of 3 to 5 mice ± S.E.M.); 46000 ± 12000 ng/g in data set [4] (LIVER, time 1, mean ± S.E.M.); under 500 ng/g in data set [4] (SPLEEN, time 1, mean ± S.E.M.). The concentration at 3 h in data set [4] (KIDNEY, mean ± S.E.M.) is under 500 ng/g; in data set [4] (LIVER, mean ± S.E.M.), under 500 ng/g; in [4] (SPLEEN, mean ± S.E.M.), under 500 ng/g. Also, the concentration at 7 h is under 500 ng/g in data set [4] (KIDNEY, mean ± S.E.M.); under 500 ng/g in data set [4] (LIVER, mean ± S.E.M.); under 500 ng/g in [4] (SPLEEN, mean ± S.E.M.). For the same compound, the concentration at 10 h in data set [4] (KIDNEY, mean ± S.E.M.) is under 500 ng/g; in data set [4] (LIVER, mean ± S.E.M.), under 500 ng/g; in [4] (SPLEEN, mean ± S.E.M.), under 500 ng/g. In addition, the concentration at 24 h in [4] (KIDNEY, mean ± S.E.M.) is under 500 ng/g; in data set [4] (LIVER, mean ± S.E.M.), under 500 ng/g; in data set [4] (SPLEEN, mean ± S.E.M.), under 500 ng/g. The “% Survival at 72 hours” value amounted to 100% in the data set with S. aureus (treated subcutaneously -1 hour, 50 mg/kg); 100% in the data set on S. aureus (treated subcutaneously -1 hour, 100 mg/kg); 100% with S. aureus (treated subcutaneously -1 hour, 200 mg/kg); 0% in the data set on S. aureus (treated subcutaneously -4 hour, 50 mg/kg); 10% with S. aureus (treated subcutaneously -4 hour, 100 mg/kg); 0% with S. aureus (treated subcutaneously -4 hour, 200 mg/kg). The survival result with S. aureus (treated subcutaneously at one hour before infection, end of the experiment (14 days)) is reported as “survived until the end of the experiment”; in the data set on S. aureus (treatment at four hours before infection), “no effect on survival”; in data set [5] it was “did not prolong survival”.
In “in vivo”, `CC(=O)Nc1c(I)c(NC(C)=O)c(I)c(C(=O)O)c1I` [free diatrizoate, diatrizoate] showed a concentration at 0.5 h of 2.8e+06 ng/g, a concentration at 1 h of 800000 ng/g and a concentration at 1.5 h of 300000 ng/g.
As for cefazolin sodium [free cefazolin], in data set [6], the MICp result was “about 0.5 ug (base weight)/ml (plasma or serum)” and the MICt result was “about 0.5 ug (base weight)/mg (spleen)”. Also, the mean serum concentration in [7] (mouse, in vivo, iv, 100 mg/kg, 1 h) lay within 8000 to 20000 ng/mL. Also, the serum level entry in data set [7] (mouse, in vivo, iv, 100 mg/kg, 2 h) is on record as “approximately 2 ug/ml”. For the same compound, the serum level result in data set [7] (single 100mg/kg intravenous dose, at 3 hours after administration) is recorded as “below the level of detection”.

(Values after patent EP0414806B1, “HIGH RATIO ACTIVE AGENT:LIPID COMPLEX” (THE LIPOSOME COMPANY, INC., priority 1988, dated 1989).)
